One experiment has as its target T1, PHD1 (Homo sapiens, UniProt Q96KS0).
T1 construct: made in house; host or cells: Sf9 insect cells (baculovirus, pBacPAC transfer vectors)
Kind of experiment: Prolyl hydroxylase assay (Eu-VBC binding to hydroxylated HIF-1α 556–574 peptide). The experiment is classed as biochemical. Particulars: 20 µM 2-oxoglutarate, 10 µM Fe2+, 2 mM ascorbate. As to the method: (§1) Recombinant human HIF-PHs were purified from Sf9 insect cell lysates. After infection with the recombinant virus stocks, generated via cloning of the respective cDNAs into pBacPAC transfer vectors (Clontech Laboratories), Sf9 cells were incubated for 48 h at 27°C with continuous shaking. Expression of the recombinant protein was confirmed by SDS-PAGE and western blot analysis of the expressed proteins. The lysate was centrifuged at 75,000 g at 4°C for 30 min and the supernatant containing the soluble HIF-PHs was incubated for 1 h at 2–8°C with CM Sepharose. After several wash steps, bound proteins were eluted from Sepharose using a linear NaCl gradient. […]
(§2) Hydroxylated biotinyl-HIF-1α 556–574 was incubated with Eu-VBC in 100 µl binding buffer (50 mM Tris [pH 7.5], 120 mM NaCl) for 60 min at room temperature. After washing six times with DELFIA wash buffer (PerkinElmer) and adding 100 µl enhancer solution (PerkinElmer), the amount of bound VBC was determined by measuring time-resolved fluorescence with a Tecan infinite M200 plate reader. Measurements were taken in triplicate or more, and results were expressed as means ± SEM. IC50 values were determined after curve fitting using GraphPad Prism software (GraphPad Software, La Jolla, CA, USA) applying the four-parameter logistic equation to the data sets. […]

Another experiment has as its target T2, PHD3 (Homo sapiens, UniProt Q9H6Z9).
T2 construct: made in house; host or cells: Sf9 insect cells (baculovirus, pBacPAC transfer vectors)
Described as above. As to conditions: 20 µM 2-oxoglutarate, 10 µM Fe2+, 2 mM ascorbate. The experiment is classed as biochemical. Here is the method: as §1, §2

The test system of a further experiment is HIF-1α and HIF-2α. Kind of experiment: Western blot detection of HIF stabilization in HeLa, A549 and Hep3B cells. The experiment is classed as cell-based, human. As to conditions: for induction threshold of detectable HIF: 2 h exposure. As to the method:
A549 and HeLa carcinoma cell lines (American Type Culture Collection) were cultured in DMEM/F-12 (Gibco), and Hep3B cells in RPMI medium, both supplemented with antibiotics, L-glutamine and 10% fetal calf serum. A549 cells stably transfected with the HIF-RE2-luc HIF reporter construct (constructed in pGL3, Promega GmbH) were seeded on 384-well plates (Greiner) at a density of 2500 cells/well in a volume of 25 µl complete cell culture medium, and re-incubated for 16–24 h before the test. Test compounds were added at appropriate dilutions in a volume of 10 µl, and cells were re-incubated for 6 h before measurement. Luciferase activity was determined in a luminometer after addition of cell lysis/luciferase buffer. Cell line identities were verified by STR DNA typing (DSMZ GmbH).
For western blot analysis, cell lysates were separated on 4–12% SDS polyacrylamide gradient gels (Invitrogen). Proteins were blotted onto polyvinylidene difluoride (PVDF) membranes (Amersham Biosciences). HIF-1α protein was detected using a HIF-1α specific monoclonal antibody (BD Transduction Laboratories) at a dilution of 1∶250. HIF-2α protein was detected using a HIF-2α specific polyclonal antibody (Novus Biologicals) at a dilution of 1∶1000. Anti-β-actin antibody served as a loading control. […] Novex Sharp Pre-stained Protein Standard (Invitrogen) was used as molecular weight marker.
It was further explored whether inhibition of HIF-PHs would result in the stabilization of HIFs. Exposure of three different human cell lines (HeLa, A549, and Hep3B) to concentrations of BAY 85-3934 up to 10 µM for 2 h led to dose-dependent increases in both HIF-1α and HIF-2α. Within the individual cell lines, there was no difference between the HIF isoforms with regard to the threshold concentration of BAY 85-3934 that was necessary for the induction of detectable amounts of HIF. […] Exposure of HeLa cells to 5 µM BAY 85-3934 for 20 min was sufficient to induce detectable concentrations of HIF-1α (Fig. 1E). After exposure of A549 cells to 20 µM BAY 85-3934 for 120 min, with subsequent withdrawal of the culture medium and replacement with medium containing 100 µM cycloheximide (an inhibitor of protein synthesis), induction of HIF-1α was no longer detectable after 30 min (Fig. 1F). Therefore, it can be ruled out that disappearance of HIF-1α was the result of de novo synthesis of […].
(In general: Immunoblotting shows a protein as a band on a membrane.)

Structures are written as SMILES.

T1 sequence (Q96KS0 whole entry): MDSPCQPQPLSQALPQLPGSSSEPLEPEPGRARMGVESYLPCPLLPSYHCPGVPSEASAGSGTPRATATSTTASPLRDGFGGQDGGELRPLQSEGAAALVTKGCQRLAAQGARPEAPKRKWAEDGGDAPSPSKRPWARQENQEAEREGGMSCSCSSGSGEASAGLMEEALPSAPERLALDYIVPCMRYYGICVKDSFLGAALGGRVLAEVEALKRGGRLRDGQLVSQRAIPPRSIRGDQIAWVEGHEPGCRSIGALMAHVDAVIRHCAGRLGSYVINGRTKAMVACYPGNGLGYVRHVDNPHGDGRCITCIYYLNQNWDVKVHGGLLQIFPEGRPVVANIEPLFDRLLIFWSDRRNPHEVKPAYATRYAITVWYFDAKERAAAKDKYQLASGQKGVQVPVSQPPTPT
T2 sequence (Q9H6Z9 whole entry): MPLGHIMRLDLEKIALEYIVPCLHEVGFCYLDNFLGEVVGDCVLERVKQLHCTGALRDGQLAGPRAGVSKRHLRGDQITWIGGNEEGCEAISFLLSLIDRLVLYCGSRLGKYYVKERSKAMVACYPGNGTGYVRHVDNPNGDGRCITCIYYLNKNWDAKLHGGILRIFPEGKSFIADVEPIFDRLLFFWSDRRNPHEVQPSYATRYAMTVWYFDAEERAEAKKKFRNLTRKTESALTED

The IC50 is the concentration at which inhibition is half-maximal. A low value points to inhibition by little substance. Consider `O=c1c(-n2ccnn2)c[nH]n1-c1cc(N2CCOCC2)ncn1` [BAY 85-3934, 2-[6-(morpholin-4-yl)pyrimidin-4-yl]-4-(1H-1,2,3-triazol-1-yl)-1,2-dihydro-3H-pyrazol-3-one], for which the 50% inhibitory concentration (IC50) was 480 nM on PHD1 and 450 nM at PHD3. Further, the “induction threshold of detectable HIF” value in the experiment on HIF-1α and HIF-2α (A549 cells) is given as 2.5 µM; in the experiment with HIF-1α and HIF-2α (HeLa cells) it was 0.25 µM; with HIF-1α and HIF-2α (Hep3B cells), 0.5 µM. In addition, the “induction threshold of HIF (summary in discussion)” value with HIF-1α and HIF-2α (human cell lines) is “below 1 µM”.

The values above are taken from PMC4230943, “Mimicking Hypoxia to Treat Anemia: HIF-Stabilizer BAY 85-3934 (Molidustat) Stimulates Erythropoietin Production without Hypertensive Effects” (PLoS ONE, 2014).
